One experiment deals with phenylquinone writhing. As to the kind of experiment: mouse phenylquinone writhing method (analgesic activity). The format is in vivo. (In writhing tests, fewer writhes than in controls are read as antinociception.)
For a further experiment, the system named is adjuvant arthritis. As to the kind of experiment: Action of inhibiting adjuvant arthritis (M. butyricum adjuvant, oral, 14 days). The class given is in vivo, male Sprague-Dawley rats (6-week old). The settings on record: for Systemic inflammation score / Increase in body weight / Weight of thymus: 50 mg/kg oral once a day; for Systemic inflammation score: max score 20; for Increase in body weight / Weight of thymus: day 14; for Restraint of the increase in body weight (result in words) / Systemic inflammation score (result in words) / Weight of thymus (result in words): oral once a day for 14 days, compared with control group. Here is the method:
As experimental animal, male Sprague-Dawley rats (6-week old) were used.
(§1) Adjuvant arthritis was induced by suspending killed cells of mycobacteria (M. butyricum strain) in liquid paraffin and injecting the rats with the resultant suspension beneath the skin of the hind-paw. The suspension obtained by suspending 70 mg of the test specimen [disodium(7-ethyl-3-carboxylato-5-oxo-5H-[1]benzopyrano[2,3-b]pyridin-2-yl)acetate] in 7 ml of 4% gum arabic was administered orally to rats once a day at a rate of 0.5 ml per 100 g of body weight for the consecutive 14 days after the injection of adjuvant. The degrees or severities of the inflammations induced on the other hind paw not injected with adjuvant, front paws, tail and ears were graded 1 to 5, and the grades were summed up for each animal, with the highest mark in total for the four body spots being 20. In addition, effects exerted by the administration on the increase in body weight (difference between the body weights measured after 14 days and on the day of sensitization) and the weight of thymus were investigated, and were compared with those obtained with the control group.
as §1, with “in liquid paraffine and injecting” for “in liquid paraffin and injecting”, “skin of hind-paw. The” for “skin of the hind-paw. The”, “test specimen [ethyl(7-ethyl-3-ethoxycarbonyl-5-oxo-5H-[1]benzopyrano[2,3-b]pyridin-2-yl)acetate] in 7” for “test specimen [disodium(7-ethyl-3-carboxylato-5-oxo-5H-[1]benzopyrano[2,3-b]pyridin-2-yl)acetate] in 7”

Experiment [1] deals with carrageenin-induced edema. Put plainly: rat carrageenin-induced edema method (antiinflammatory activity). The class given is in vivo.

Molecules are shown by their SMILES.

On to `CCc1ccc2oc3nc(CC(=O)O)c(C(=O)O)cc3c(=O)c2c1` [disodium(7-ethyl-3-carboxylato-5-oxo-5H-[1]benzopyrano[2,3-b]pyridin-2-yl)acetate], for which the Analgesic activity result with phenylquinone writhing is “neither to exhibit the antiinflammatory activity in the rat carrageenin-induced edema method and the analgesic activity”. Also, in the experiment on adjuvant arthritis (Experiment 1 (Table 1), day 12 after sensitization, control 7.0 ± 0.9, * P <0.05), the Systemic inflammation score amounted to 3.7 ± 1.1. Further, the “Increase in body weight” value with adjuvant arthritis (Experiment 1 (Table 1), control 42.2 ± 2.5) is recorded as 50.0 ± 3.1 g. For the same compound, the Weight of thymus in the experiment with adjuvant arthritis (Experiment 1 (Table 1), control 211.7 ± 21.5, * P <0.05) was 375 ± 52.0 mg. Also, the Systemic inflammation score with adjuvant arthritis (Experiment 1 (Table 1), day 14 after sensitization, control 8.8 ± 0.7, * P <0.05) stood at 4.7 ± 1.6. Besides, in the experiment with adjuvant arthritis, the “Restraint of the increase in body weight (result in words)” value was “improve the systemic inflammation score and the restraint of the increase in body weight”; the “Systemic inflammation score (result in words)” value is reported as “improve the systemic inflammation score”; the “Weight of thymus (result in words)” value is “increase the weight of thymus”. In addition, the Antiinflammatory activity entry in experiment [1] is “neither to exhibit the antiinflammatory activity”.

With `CCOC(=O)Cc1nc2oc3ccc(CC)cc3c(=O)c2cc1C(=O)OCC` [ethyl(7-ethyl-3-ethoxycarbonyl-5-oxo-5H-[1]benzopyrano[2,3-b]pyridin-2-yl)acetate], the Systemic inflammation score in the experiment on adjuvant arthritis (Experiment 2 (Table 2), day 12 after sensitization, control 6.7 ± 0.8, ** P <0.01) is 3.3 ± 0.7. Further, in the experiment with adjuvant arthritis (Experiment 2 (Table 2), control 42.5 ± 3.2), the “Increase in body weight” value is recorded as 43.3 ± 8.6 g. Also, the Weight of thymus with adjuvant arthritis (Experiment 2 (Table 2), control 286.5 ± 34.3) was found to be 444.2 ± 69.9 mg. In addition, in the experiment with adjuvant arthritis (Experiment 2 (Table 2), day 14 after sensitization, control 8.0 ± 0.5, ** P <0.01), the Systemic inflammation score is on record as 4.0 ± 1.0. In addition, in the experiment on adjuvant arthritis, the “Restraint of the increase in body weight (result in words)” value was “improve the systemic inflammation score and the restraint of the increase in body weight”; the “Systemic inflammation score (result in words)” value is reported as “improve the systemic inflammation score”; the “Weight of thymus (result in words)” value was “tendency to increase the weight of thymus”.

The values above are taken from patent US4539326A, “5-Oxo-5H-(1)benzopyrano(2,3-b)pyridine derivatives, their production and use as anti-inflammatory agents” (Takeda Chemical Industries, Ltd., priority 1982, dated 1985).
